From patent US12661342B2, “Heteroaryl compounds and therapeutic uses thereof in conditions associated with the alteration of the activity of beta-glucocerebrosidase” (GT GAIN THERAPEUTICS SA, priority 2019, dated 2026)

Target: T1, β-glucocerebrosidase (Homo sapiens, UniProt P04062, L483P)
T1 construct: host or cells: human Gaucher disease patient fibroblasts GM08760A
T1 sequence (P04062 40-536 L483P): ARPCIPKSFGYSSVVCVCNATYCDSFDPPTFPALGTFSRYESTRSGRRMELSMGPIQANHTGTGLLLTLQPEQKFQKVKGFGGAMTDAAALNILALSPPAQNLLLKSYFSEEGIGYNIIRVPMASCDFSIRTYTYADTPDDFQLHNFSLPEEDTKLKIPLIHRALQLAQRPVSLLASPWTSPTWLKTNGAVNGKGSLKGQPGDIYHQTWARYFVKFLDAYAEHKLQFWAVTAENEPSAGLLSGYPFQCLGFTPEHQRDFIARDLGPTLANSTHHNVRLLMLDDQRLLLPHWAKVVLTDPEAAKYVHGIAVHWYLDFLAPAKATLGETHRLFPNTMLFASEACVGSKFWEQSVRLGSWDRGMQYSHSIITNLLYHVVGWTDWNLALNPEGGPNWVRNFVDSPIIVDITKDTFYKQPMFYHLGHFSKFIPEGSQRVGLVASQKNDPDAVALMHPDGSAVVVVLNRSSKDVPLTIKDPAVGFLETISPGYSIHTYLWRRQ
Experiment: Enhancement of β-glucocerebrosidase activity measured in Gaucher disease fibroblasts (4-MU-β-D-glucopyranoside substrate, intact cells)
Assay type: cell-based
Design: key: Increase in comparison with non-treated of >2.0 fold is shown as A; Increase in comparison with non-treated of >1.7-2.0 fold is shown as B; Increase in comparison with non-treated of 1.2-1.7 fold is shown as C; D means that no increase compared with non-treated cells was detected in this method
Details: GBA fibroblasts bearing L444P (GM08760A, homozygous p.L444P); compound at concentrations between 6 and 50 μM; 4 days incubation
Summary of the method: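 Patient fibroblasts homozygous for p.L444P (GM08760A), grown in DMEM/10% FBS and exposed to compound for 4 days. Intact cells then given 4-MU-β-D-glucopyranoside in 0.1 M acetate pH 4, 1 h, 37 °C; stopped at pH 10.7, 4-MU fluorescence ex 340/em 460. Value is fold increase over untreated cells; binned at 6–50 μM.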

Row | Structure (SMILES) | Range: increase in enzyme activity in comparison with non-treated cells (Enzyme activity assay for exemplified compounds) | Range: increase in enzyme activity in comparison with non-treated cells (Enzyme activity assay for compounds of Examples 33-141)
1 | CN(C(=O)c1cc(N)nc(Nc2ccccc2O)n1)C1Cc2ccccc2C1 [Example 10, 6-Amino-N-(2,3-dihydro-1H-inden-2-yl)-2-((2-hydroxyphenyl)amino)-N-methylpyrimidine-4-carboxamide] | C (Increase in comparison with non-treated of 1.2-1.7 fold is shown as C) | –
2 | Nc1cc(Nc2cc(F)cc(F)c2)nc(C(=O)NC2Cc3ccccc3C2)c1 [Example 109, 4-Amino-6-((3,5-difluorophenyl)amino)-N-(2,3-dihydro-1H-inden-2-yl)picolinamide] | – | A (Increase in comparison with non-treated of >2.0 fold is shown as A)
3 | CN(C(=O)c1cc(N)nc(N[C@H]2CCCC[C@@H]2O)n1)c1ccccc1 [Example 33, 6-Amino-2-(((1S,2S)-2-hydroxycyclohexyl)amino)-N-methyl-N-phenylpyrimidine-4-carboxamide] | – | D
4 | Nc1cc(C(=O)N2CCN(c3ccccc3)CC2)nc(Nc2ccccc2O)n1 [Example 1, (6-Amino-2-((2-hydroxyphenyl)amino)pyrimidin-4-yl)(4-phenylpiperazin-1-yl)methanone] | C (Increase in comparison with non-treated of 1.2-1.7 fold is shown as C) | –
